Measured values: patent publication US10662203B2, “Pyrido[2,3-b]indole compounds for the treatment and prophylaxis of bacterial infection” (Hoffmann-La Roche Inc., priority 2017, dated 2020)
≈ marks a conversion by molar mass, not a printed value. Read-outs that look alike come from different tables or passages of the source.

Legend:
A. baumannii (ATCC17978) = assay: 50% growth inhibitory concentration (IC50) determination assay; assay type: cell-based; details: Acinetobacter baumannii, ATCC17978, A. baumannii ATCC17978; Iso-Sensitest broth; 0.098 = detection limit
Summary of the method: (§1)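 Compounds were two-fold serially diluted from 50 to 0.097 μM final in Iso-Sensitest broth, inoculated to ~5×10^5 CFU/mL and incubated at 35±2° C. Growth was followed by OD at 600 nm every 20 minutes for 16 h.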

[1] = test system: K. pneumoniae (ATCC10031); assay: as above; assay type: cell-based; details: Klebsiella pneumoniae, Iso-Sensitest broth, 0.098 = detection limit
Summary of the method: as §1

S. aureus (ATCC29213) = assay: as above; assay type: cell-based; details: Staphylococcus aureus, Iso-Sensitest broth, 0.098 = detection limit
Summary of the method: as §1

[2] = Lyophilisation solubility assay (LYSA); assay type: physicochemical; details: phosphate buffer, pH 6.5, aqueous buffer, thermodynamic from solid, 0.05 M phosphate buffer, HPLC-UV
Summary of the method: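 Duplicate samples made from 10 mM DMSO stock. DMSO evaporated and the residue taken up in 0.05 M phosphate buffer, pH 6.5, stirred 1 h and shaken 2 h, then left overnight. Filtrate and its 1/10 dilution quantified by HPLC-UV.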

[3] = Cytotoxicity assay (HepG2, CellTiter-Blue cell viability); assay type: cell-based; details: human; HepG2 cells, 3 days treatment; "*": the detection limit; read-out: CC50
Summary of the method: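 HepG2 cells (1.2×10^4 per well) exposed to compounds for 3 days; viability then read by CellTiter-Blue fluorescence after 3 h at 37 °C. CC50 from four-parameter logistic fit.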

[4] = Single dose PK study (SDPK) in female CD-1 mouse; assay type: in vivo; details: MOUSE IV; for clearance: female, CD-1, plasma, read-out: CL total
Method: Single Dose PK Study (SDPK) in Female CD-1 Mouse: The single dose PK in female CD-1 mouse was performed to assess compound's pharmacokinetic properties. One group of animals were dosed via bolus intravenous (IV) of the respective compound. Blood samples (approximately 30 μL) were collected via saphenous vein at 5 mins, 15 min, 30 min, 1 hr, 2 hr, 4 hr and 7 hr. For last time point (24 hr), samples were collected via cardiac puncture while the mouse was under anesthesia. Blood samples were placed into tubes containing EDTA-K2 anticoagulant (2 μL of 0.5M per tube) and centrifuged at 3000 rpm for 10 minutes at 4° C. within half an hour to separate plasma from the samples. Following centrifugation, plasma samples were stored in polypropylene tubes, quick frozen over dry ice and kept at −70±10° C. until LC/MS/MS analysis. The pharmacokinetic parameters were calculated using non-compartmental module of WinNonlin® Professional 6.4.

| SMILES | IC50 (A. baumannii (ATCC17978)) | IC50 [1] | IC50 (S. aureus (ATCC29213)) | solubility thermodynamic [2] | AUC total ([4]; 1.0 mg/kg-Solution) | clearance ([4]; 1.0 mg/kg-Solution) | AUC total ([4]; 0.7 mg/kg-Solution) | clearance ([4]; 0.7 mg/kg-Solution) | CC50 at 3 days [3] |
| --- | --- | --- | --- | --- | --- | --- | --- | --- | --- |
| CNc1cc(F)c(Cl)c2c1[nH]c1ncc(-c3cnc4c(c3)c(=O)c(C(=O)O)cn4NC)c(N3CC[C@H]4CN(C)CC43)c12 (stereo partly drawn) [Example 1.268] | 0.065 µM | < 0.098 µM | < 0.098 µM | 24 µg/mL (≈ 40.6 µM) |  |  |  |  | 33.4 µM |
| CNc1cc(F)cc2c1[nH]c1ncc(-c3cnc4c(c3)c(=O)c(C(=O)O)cn4C)c(N3CCO[C@@H](CN(C)C)C3)c12 [Example 3.02A] | 0.268 µM | < 0.098 µM | < 0.098 µM | 480 µg/mL (≈ 858 µM) |  |  |  |  | > 100 µM |
| CNc1cc(F)cc2c1[nH]c1ncc(-c3cnc4c(c3)c(=O)c(C(=O)O)cn4C)c(N3CCN(C)CC3)c12 [Example 1.184] | 0.148 µM | < 0.098 µM | < 0.098 µM | 52 µg/mL (≈ 101 µM) |  |  |  |  | 28.7 µM |
| CCn1cc(C(=O)O)c(=O)c2cc(-c3cnc4[nH]c5c(NC)cc(F)c(F)c5c4c3N3CC4CC3CO4)cnc21 (stereo not drawn) [Example 1.05] | 0.725 µM | < 0.098 µM | < 0.098 µM |  | 162.7 ng·h/mL | 100 mL/min/kg |  |  |  |
| CNc1cc(F)c(F)c2c1[nH]c1ncc(-c3cnc4c(c3)c(=O)c(C(=O)O)cn4C)c(N3CCC4(CCCN4C)CC3)c12 [Example 1.230] | 0.376 µM | < 0.098 µM | 0.099 µM | 19 µg/mL (≈ 32.3 µM) |  |  |  |  | > 100 µM |
| CNc1cc(F)cc2c1[nH]c1ncc(-c3cnc4c(c3)c(=O)c(C(=O)O)cn4C)c(N3CCO[C@H](CN(C)C)C3)c12 [Example 3.02B] | 0.444 µM | < 0.098 µM | < 0.098 µM | 455 µg/mL (≈ 813 µM) |  |  |  |  | > 100 µM |
| CNc1cc(F)c(F)c2c1[nH]c1ncc(-c3cnc4c(c3)c(=O)c(C(=O)O)cn4C)c(N3CCC4(CN(C)CCO4)C3)c12 (stereo not drawn) [Example 1.202] | 0.16 µM | < 0.098 µM | < 0.098 µM |  | 167.5 ng·h/mL | 98.1 mL/min/kg |  |  |  |
| CNc1cc(F)cc2c1[nH]c1ncc(-c3cnc4c(c3)c(=O)c(C(=O)O)cn4C)c(N3CCOCC(CN(C)C)C3)c12 (stereo not drawn) [Example 1.90] | 0.411 µM | < 0.098 µM | 0.216 µM | 700 µg/mL (≈ 1220 µM) |  |  |  |  | > 100 µM |
| CNc1cc(F)c(F)c2c1[nH]c1ncc(-c3cnc4c(c3)c(=O)c(C(=O)O)cn4CCN(C)C)c(N(C)C)c12 [Example 1.22] | 0.118 µM | < 0.098 µM | < 0.098 µM |  | 179.9 ng·h/mL | 91.3 mL/min/kg |  |  |  |
| CNc1cc(F)cc2c1[nH]c1ncc(-c3cnc4c(c3)c(=O)c(C(=O)O)cn4N3CCOCC3)c(N3CCOCC3)c12 [Example 1.71] | 0.923 µM | < 0.098 µM | < 0.098 µM | 11 µg/mL (≈ 19.2 µM) |  |  |  |  | > 100 µM |
| CNc1cc(F)c(F)c2c1[nH]c1ncc(-c3cnc4c(c3)c(=O)c(C(=O)O)cn4NC)c(N3CC4[C@H](CCN4C)C3)c12 (stereo partly drawn) [Example 1.193] | 0.096 µM | < 0.098 µM | < 0.098 µM | 16 µg/mL (≈ 27.8 µM) |  |  |  |  | > 100 µM |
| CNc1cc(Cl)cc2c1[nH]c1ncc(-c3cnc4c(c3)c(=O)c(C(=O)O)cn4C)c(N3CCOC(CN(C)C)C3)c12 (stereo not drawn) [Example 1.138] | 0.302 µM | < 0.098 µM | < 0.098 µM | 91 µg/mL (≈ 158 µM) |  |  |  |  | 47.3 µM |
| CNc1c(F)c(F)cc2c1[nH]c1ncc(-c3cnc4c(c3)c(=O)c(C(=O)O)cn4C)c(N3CCOC(CN(C)C)C3)c12 (stereo not drawn) [Example 1.78] | 0.326 µM | < 0.098 µM | 0.343 µM | 530 µg/mL (≈ 918 µM) |  |  |  |  | 42.5 µM |
| CNc1cc(F)c(F)c2c1[nH]c1ncc(-c3cnc4c(c3)c(=O)c(C(=O)O)cn4C)c(N3CC[C@@H](CN4CCCC4)C3)c12 [Example 1.173] | 0.216 µM | < 0.098 µM | < 0.098 µM | 106 µg/mL (≈ 180 µM) |  |  |  |  | 44.9 µM |
| CNc1cc(F)c(F)c2c1[nH]c1ncc(-c3cnc4c(c3)c(=O)c(C(=O)O)cn4CC(C)(C)N)c(N3CCOCC3)c12 [Example 1.38] | 0.883 µM | < 0.098 µM | 0.181 µM | 15 µg/mL (≈ 26 µM) |  |  |  |  | > 100 µM |
| CNc1cc(F)c(F)c2c1[nH]c1ncc(-c3cnc4c(c3)c(=O)c(C(=O)O)cn4C)c(N3CC4CN(C)C[C@@H]4C3)c12 (stereo partly drawn) [Example 1.227] | 0.294 µM | < 0.098 µM | 0.132 µM | 12 µg/mL (≈ 21.4 µM) |  |  |  |  | 28 µM |
| CCCN(C)c1c(-c2cnc3c(c2)c(=O)c(C(=O)O)cn3CC)cnc2[nH]c3c(NC)cc(F)c(F)c3c12 [Example 1.07] |  |  |  |  |  |  | 260.7 ng·h/mL | 45.8 mL/min/kg |  |

Continued, in another order:

| IC50 (A. baumannii (ATCC17978)) | IC50 [1] | IC50 (S. aureus (ATCC29213)) | solubility thermodynamic [2] | AUC total ([4]; 1.0 mg/kg-Solution) | clearance ([4]; 1.0 mg/kg-Solution) | AUC total ([4]; 0.7 mg/kg-Solution) | clearance ([4]; 0.7 mg/kg-Solution) | SMILES | CC50 at 3 days [3] |
| --- | --- | --- | --- | --- | --- | --- | --- | --- | --- |
| 0.283 µM | < 0.098 µM | 0.162 µM | 695 µg/mL (≈ 1280 µM) |  |  |  |  | CNc1cc(F)cc2c1[nH]c1ncc(-c3cnc4c(c3)c(=O)c(C(=O)O)cn4C)c(N3CCC[C@H]3CN(C)C)c12 [Example 1.162] | 67.6 µM |
| 0.423 µM | < 0.098 µM | 0.177 µM | 147 µg/mL (≈ 262 µM) |  |  |  |  | CNc1cc(F)c(F)c2c1[nH]c1ncc(-c3cnc4c(c3)c(=O)c(C(=O)O)cn4C)c(N3CCC(N(C)C)CC3)c12 [Example 1.182] | 91.7 µM |
| 0.102 µM | < 0.098 µM | < 0.098 µM | 66 µg/mL (≈ 118 µM) |  |  |  |  | CNc1cc(F)c(F)c2c1[nH]c1ncc(-c3cnc4c(c3)c(=O)c(C(=O)O)cn4C)c(N3CCC[C@@H](N(C)C)C3)c12 [Example 3.06A] | 52.5 µM |
| 0.236 µM | < 0.098 µM | < 0.098 µM | 104 µg/mL (≈ 176 µM) |  |  |  |  | CNc1cc(F)c(F)c2c1[nH]c1ncc(-c3cnc4c(c3)c(=O)c(C(=O)O)cn4NC)c(N3CCCC(CN(C)C)C3)c12 (stereo not drawn) [Example 1.186] | 45.6 µM |
| 0.153 µM | < 0.098 µM | < 0.098 µM | 266 µg/mL (≈ 474 µM) |  |  |  |  | CNc1cc(F)c(F)c2c1[nH]c1ncc(-c3cnc4c(c3)c(=O)c(C(=O)O)cn4C)c(N3CCC(CN(C)C)C3)c12 (stereo not drawn) [Example 1.135] | 29.3 µM |
| 0.817 µM | < 0.098 µM | 0.139 µM | 600 µg/mL (≈ 1040 µM) |  |  |  |  | CNc1cc(F)c(F)c2c1[nH]c1ncc(-c3cnc4c(c3)c(=O)c(C(=O)O)cn4C)c(N3CCOC(CN(C)C)C3)c12 (stereo not drawn) [Example 1.61] | > 100 µM |
| 0.244 µM | < 0.098 µM | < 0.098 µM | 19 µg/mL (≈ 33 µM) |  |  |  |  | CCNc1cc(F)c(F)c2c1[nH]c1ncc(-c3cnc4c(c3)c(=O)c(C(=O)O)cn4C)c(N3CCC(CN(C)C)C3)c12 (stereo not drawn) [Example 1.106] | 91.3 µM |
| 0.187 µM | < 0.098 µM | 0.12 µM | 190 µg/mL (≈ 330 µM) |  |  |  |  | CNc1cc(F)c(F)c2c1[nH]c1ncc(-c3cnc4c(c3)c(=O)c(C(=O)O)cn4NC)c(N3CCC[C@H]3CN(C)C)c12 [Example 1.217] | 27.8 µM |
| 0.202 µM | < 0.098 µM | 0.155 µM | > 830 µg/mL |  |  |  |  | [2H]C([2H])([2H])Nc1cc(F)c(F)c2c1[nH]c1ncc(-c3cnc4c(c3)c(=O)c(C(=O)O)cn4C)c(N3CCC[C@H]3CN(C)C)c12 [Example 1.161] | > 100 µM |
| 0.197 µM | < 0.098 µM | 0.195 µM | 181 µg/mL (≈ 314 µM) |  |  |  |  | CNc1cc(F)c(F)c2c1[nH]c1ncc(-c3cnc4c(c3)c(=O)c(C(=O)O)cn4NC)c(N3CCCC(N(C)C)C3)c12 (stereo not drawn) [Example 1.191] | 29.1 µM |
| 0.916 µM | < 0.098 µM | 0.444 µM | 70 µg/mL (≈ 118 µM) |  |  |  |  | CNc1cc(F)c(F)c2c1[nH]c1ncc(-c3cnc4c(c3)c(=O)c(C(=O)O)cn4NC)c(N3CCOC(CN(C)C)C3)c12 (stereo not drawn) [Example 1.181] | > 100 µM |
| 0.294 µM | < 0.098 µM | 0.11 µM | 321 µg/mL (≈ 572 µM) |  |  |  |  | CNc1cc(F)c(F)c2c1[nH]c1ncc(-c3cnc4c(c3)c(=O)c(C(=O)O)cn4C)c(N3CCCC3CN(C)C)c12 (stereo not drawn) [Example 1.12] | 39.2 µM |
| 0.155 µM | < 0.098 µM | < 0.098 µM | 301 µg/mL (≈ 540 µM) |  |  |  |  | CNc1cc(F)cc2c1[nH]c1ncc(-c3cnc4c(c3)c(=O)c(C(=O)O)cn4C)c(N3CCCC(CN(C)C)C3)c12 (stereo not drawn) [Example 1.94] | 38.7 µM |
